Reference: patent publication US7642229B2, “Pharmaceutical composition and a product which includes a substituted acryloyl distamycin derivative, an antimicrotubule agent and/or an antimetabolite” (Nerviano Medical Sciences S.r.l., priority 2000, dated 2010)

Tested on: disseminated L1210 murine leukemia
Conditions: for Tox (number of toxic deaths/number of mice) / ILS % (increase in life span: [(median survival time of treated mice/median survival time of controls) × 100] − 100): L1210 cells 10^5/mouse iv on day 0, PNU 166196 iv + 1.6, 0.78 mg/kg/day; for Tox (number of toxic deaths/number of mice): gemcitabine iv + 1, 15 mg/kg/day; for ILS % (increase in life span: [(median survival time of treated mice/median survival time of controls) × 100] − 100): gemcitabine iv + 1, 15 mg/kg/day (2 h after PNU 166196 administration); for ILS % values: text: gemcitabine 15 mg/kg day +1 after tumor injection, PNU 166196 0.7 mg/kg days +1,6, combination at the same doses and schedule

| SMILES | Tox (number of toxic deaths/number of mice) | ILS % (increase in life span: [(median survival time of treated mice/median survival time of controls) × 100] − 100) [%] | ILS % values [%] | toxicity (text: gemcitabine alone 15 mg/kg day +1, PNU 166196 alone 0.7 mg/kg days +1,6) |
| --- | --- | --- | --- | --- |
| C=C(Br)C(=O)Nc1cc(C(=O)Nc2cc(C(=O)Nc3cc(C(=O)Nc4cc(C(=O)NCCNC(=N)N)n(C)c4)n(C)c3)n(C)c2)n(C)c1.Cl [PNU 166196, N-(5-{[(5-{[(5-{[(2-{[amino(imino)methyl]amino}ethyl)amino]carbonyl}-1-methyl-1H-pyrrol-3-yl)amino]carbonyl}-1-methyl-1H-pyrrol-3-yl)amino]carbonyl}-1-methyl-1H-pyrrol-3-yl)-4-[(2-bromoacryloyl)amino]-1-methyl-1H-pyrrole-2-carboxamide hydrochloride] | 0/10 | 58 | 58 | without toxicity |
| Nc1ccn([C@@H]2O[C@H](CO)[C@@H](O)C2(F)F)c(=O)n1 [Gemcitabine, gemcitabine, reference compound] | 0/10 | 50 | 50 | – |
